Residue numbers refer to the chain shown, from its start.
Columns and labels:
Format in all cases: biochemical
[1] = molecular target: T1, Pseudomonas fluorescens FLS (formolase), wild type, SEQ ID NO: 8 (Pseudomonas fluorescens, UniProt Q9F4L3, A28I/A394G/A480W/G419N/L90T/R188H/W89R); assay: kinetic parameters of FLS; details: substrate acetaldehyde, coenzyme TPP (0.1 mM), pH 8.0, room temperature
T1 sequence (Q9F4L3 1-563 A28I/A394G/A480W/G419N/L90T/R188H/W89R): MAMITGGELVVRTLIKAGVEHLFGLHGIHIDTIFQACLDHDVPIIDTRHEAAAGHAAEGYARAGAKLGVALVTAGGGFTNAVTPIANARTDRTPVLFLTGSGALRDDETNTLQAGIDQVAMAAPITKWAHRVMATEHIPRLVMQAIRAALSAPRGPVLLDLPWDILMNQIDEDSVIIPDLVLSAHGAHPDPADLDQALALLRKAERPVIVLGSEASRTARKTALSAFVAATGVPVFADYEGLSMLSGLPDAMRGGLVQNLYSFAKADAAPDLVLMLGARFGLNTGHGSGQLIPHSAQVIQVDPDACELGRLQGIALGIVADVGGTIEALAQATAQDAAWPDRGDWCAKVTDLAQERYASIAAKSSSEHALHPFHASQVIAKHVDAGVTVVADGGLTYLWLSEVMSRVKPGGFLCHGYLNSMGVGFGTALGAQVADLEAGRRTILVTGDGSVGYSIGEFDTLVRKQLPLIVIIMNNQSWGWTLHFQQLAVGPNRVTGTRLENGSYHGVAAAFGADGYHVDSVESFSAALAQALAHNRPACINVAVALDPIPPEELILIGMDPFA
Procedure: (§1) The kinetic parameters of EtDH and EtDH:D46G were identified by reacting the EtDH and EtDH:D46G with a reaction mixture containing 100 mM glycine-NaOH buffer solution (pH 9.5), 5 mM Mg^2+, 3 mM NAD^+/NADP^+ and 0.5 to 100 mM ethanol at room temperature. The kinetic parameters of FLS and variants thereof were identified by reacting FLS and variants thereof with a reaction mixture containing 100 mM phosphate buffer solution (pH 8.0), 1 mM Mg^+, 0.1 mM TPP and 0.5 to 20 mM acetaldehyde at room temperature. The kinetic parameters of BDH and BDH:S199A were identified by reacting BDH and BDH:S199A with a reaction mixture containing 50 mM Tris-HCl buffer solution (pH 7.5), 0.2 mM NADPH, 1 mM DTT; 0.5 to 100 mM acetoin or 0.5 to 10 mM butanone at room temperature. The Km and kcat values were identified using nonlinear regression fitting of the Michaelis-Menten equation and the fitting were repeated three times.
(§2) In order to compare the catalytic efficiencies via measurement of kinetic parameters of cascade enzymes and variants thereof in accordance with the present disclosure, the following experiment was performed. Specifically, the kinetic parameters of EtDH and EtDH:D46G were identified by reacting EtDH and EtDH:D46G with a reaction mixture containing 100 mM glycine-NaOH buffer solution (pH 9.5), 5 mM Mg^2+, 3 mM NAD^+/NADP^+ and 0.5 to 100 mM ethanol at room temperature. […]

[2] = molecular target: T2, Pseudomonas fluorescens FLS (formolase) variant FLS:L482R, SEQ ID NO: 11 (Pseudomonas fluorescens, UniProt Q9F4L3, A28I/A394G/A480W/G419N/L482R/L90T/R188H/W89R); assay: kinetic parameters of FLS:L482R; details: substrate acetaldehyde
T2 sequence (Q9F4L3 1-563 A28I/A394G/A480W/G419N/L482R/L90T/R188H/W89R): T1 sequence (Q9F4L3 1-563 A28I/A394G/A480W/G419N/L90T/R188H/W89R) with L482R
Procedure: as §1, §2

[3] = molecular target: T3, Pseudomonas fluorescens FLS (formolase) variant FLS:L482S, SEQ ID NO: 10 (Pseudomonas fluorescens, UniProt Q9F4L3, A28I/A394G/A480W/G419N/L482S/L90T/R188H/W89R); assay: kinetic parameters of FLS:L482S; details: substrate acetaldehyde
T3 sequence (Q9F4L3 1-563 A28I/A394G/A480W/G419N/L482S/L90T/R188H/W89R): T1 sequence (Q9F4L3 1-563 A28I/A394G/A480W/G419N/L90T/R188H/W89R) with L482S
Procedure: as §1, §2

[4] = test system: Pseudomonas fluorescens FLS (formolase) variant FLS:L482E, SEQ ID NO: 12; assay: kinetic parameters of FLS:L482E; details: substrate acetaldehyde, coenzyme TPP
Procedure: as §1, §2

[5] = molecular target: T4, Pseudomonas fluorescens FLS (formolase) variant FLS:L482E, SEQ ID NO: 12 (Pseudomonas fluorescens, UniProt Q9F4L3, A28I/A394G/A480W/G419N/L482E/L90T/R188H/W89R); assay: kinetic parameters of FLS:L482E; details: substrate acetaldehyde, coenzyme TPP (0.1 mM), pH 8.0, room temperature
T4 sequence (Q9F4L3 1-563 A28I/A394G/A480W/G419N/L482E/L90T/R188H/W89R): T1 sequence (Q9F4L3 1-563 A28I/A394G/A480W/G419N/L90T/R188H/W89R) with L482E
Procedure: as §1, §2

[6] = coenzyme TPP (0.1 mM), pH 8.0, room temperature

In the case of `CC=O` [Acetaldehyde], the kcat/Km [1] is reported as 7.69 M⁻¹ s⁻¹, the “increase of catalyst efficiency (kcat/Km) compared to wild-type FLS” value (“increase of catalyst efficiency” below) ([2]; coenzyme TPP) is reported as 37.84% and the kcat/Km [2, 6] is reported as 10.6 M⁻¹ s⁻¹. For the same compound, the “increase of catalyst efficiency” value ([3]; coenzyme TPP) was 72.95%, the kcat/Km [3, 6] was 13.3 M⁻¹ s⁻¹ and the “increase of catalyst efficiency” value [4] was 25.62%. It also gave a kcat/Km [5] of 9.66 M⁻¹ s⁻¹.

— patent US11441142B2, “FLS variant having increased activity” (KONKUK UNIVERSITY INDUSTRIAL COOPERATION CORPORATION, priority 2017, dated 2022)
